Measured values as given in PubChem BioAssay AID256 (DTP/NCI, 2004).
Toxic doses and inconclusive results are not listed. How the source made its calls: active means survival T/C of 150% or more; inactive means T/C below 125% in these data.

Test system: CD2F1 mice, L1210 leukemia ip, survival T/C
Assay: NCI In Vivo Anticancer Drug Screen. Data for tumor model L1210 Leukemia (intraperitoneal) in CD2F1 (CDF1) mice
Conditions: endpoint: mean survival time, higher = longer survival
Procedure, shortened: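 Each value reflects a quotient of treated over vehicle control outcomes in mice with a transplanted tumor.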

Measured: T/C

COc1ccc2nc3cc(Cl)ccc3c(Nc3ccc(C(O)CCN(C)C)cc3)c2c1 (stereo unspecified)
inactive: dose: 75.0 mg/kg/injection, schedule: Q01DX001 (ip), vehicle: saline 92 % of control | dose: 150.0 mg/kg/injection, schedule: Q01DX001 (ip), vehicle: saline 92 % of control | dose: 300.0 mg/kg/injection, schedule: Q01DX001 (ip), vehicle: saline 90 % of control

CN=C1C=C/C(=N/N=c2/ccn(O)cc2C)C=C1C
inactive: dose: 25.0 mg/kg/injection, schedule: Q04DX002 (ip), vehicle: saline with Tween-80 106 % of control | dose: 50.0 mg/kg/injection, schedule: Q04DX002 (ip), vehicle: saline with Tween-80 95 % of control | dose: 100.0 mg/kg/injection, schedule: Q04DX002 (ip), vehicle: saline with Tween-80 111 % of control
